Test results published in patent US20040023884A1, “Biologically active peptides from functional domains of bactericidal/permeability-increasing protein and uses thereof” (priority 1993, published 2004).

How the values were obtained:
ATIII/heparin complexes = assay: Thrombin inactivation by ATIII/heparin complexes (Chromostrate anti-thrombin assay); format: biochemical; conditions: 1.0 to 100 μg/mL
Procedure: BPI functional domain peptides BPI.2, BPI.3, BPI.4, BPI.5, BPI.6, and BPI.8, along with rBPI23 as a positive control, were assayed for their effect on thrombin inactivation by ATIII/heparin complexes according to the method of Example 3 in copending and co-assigned U.S. patent application Ser. No. 08/093,202, filed Jul. 15, 1993, incorporated by reference. Specifically, a Chromostrate™ anti-thrombin assay kit (Organon Teknika Corp., Durham, N.C.) was used to examine the inhibition of purified thrombin by preformed ATIII/heparin complexes in plasma.
Briefly, the assay was performed in 96 well microtiter plates in triplicate with a final volume per well of 200 μL. Varying concentrations of the BPI functional domain peptides ranging from 1.0 μg/mL to 100 μg/mL were assayed to determine their effect on thrombin inhibition in the presence of pre-formed ATIII/heparin complexes. The order of addition of assay components was as follows: 1) a dilution series of rBPI23 or BPI functional domain peptides or thaumatin as a control protein, with final concentrations of 100, 50, 25, 10 and 1 μg/well, diluted in PBS in a final volume of 50 μL; 2) 50 μL plasma diluted 1:100 in a buffer supplied by the manufacturer, 3) 50 μl thrombin at 1 nKat/mL in a buffer supplied by the manufacturer, and 4) 50 μL chromogenic substrate at a concentration of 1 μmol/mL in water. The reaction was allowed to proceed for 10 minutes at 37° C. and stopped with the addition of 50 μL 0.1M citric acid. The colorimetric reaction was quantitated on a microplate reader as described in Example 3.

[1] = 3H-heparin binding assay (affinity and capacity); conditions: for Heparin Capacity: heparin bound at saturation; for Kd: read-out: Heparin Affinity
Procedure, shortened: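 Bound 3H-heparin was counted by liquid scintillation after 1 h incubation at 4 °C with fragments immobilised on PVDF-bottomed wells, then washing in blocking buffer. Signal was corrected for BSA-related background, and varying amounts of rBPI23 were used as positive control.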

[2] = In vivo APTT in heparinized rats; set-up: species or system Sprague-Dawley rats; conditions: 100 U/kg heparin i.v., test protein 5 minutes later, blood 2 minutes after
Procedure: The in vivo effect of exemplary BPI combination peptides on APTT in heparinized rats was determined and compared with the in vivo effect of rBPI23. APTT is lengthened by the presence of endogenous or exogenous inhibitors of thrombin formation, such as therapeutically administered heparin. Agents which neutralize the anti-coagulant effects of heparin will reduce the APTT as measured by this test. Sprague-Dawley rats housed under NIH guidelines were administered with 100 U/kg heparin by bolus intravenous injections via the animals' tail vein followed 5 minutes later by administration of varying amounts of test or control protein as compared with rBPI23. The APTT was then determined from blood samples collected from the abdominal aorta 2 minutes after the administration of the test or control protein. The APTT of untreated animals, as well as animals treated only with a BPI peptide, was also determined.

[3] = system: endotoxin (e.g. E. coli 01:B4); assay: Mouse experimental endotoxemia model; set-up: species or system mice; conditions: in vivo
Procedure: BPI functional domain peptides are tested for their efficacy in a mouse experimental endotoxemia model. Groups of at least 15 mice are administered an intravenous injection of endotoxin (e.g. E. coli 01:B4, Sigma Chemical Co., St. Louis, Mo.) at a LD90 dosage (e.g., 40 mg/kg). This is followed by a second intravenous injection of the test peptide in varying concentrations from about 0.1 mg/kg to about 100 mg/kg, preferably in the range of about 1 to 50 mg/kg. Injections of buffer without added peptide are used in negative control mice. The animals are observed for 7 days and mortality recorded. The efficacy of the peptides of this invention is measured by a decrease in endotoxemia-associated mortality in peptide-injected mice as compared with control mice.

[4] = system: rough mutant E. coli J5 bacteria; assay: Radial diffusion bactericidal assay, E. coli J5; format: cell-based; conditions: radial diffusion; PROBIT analysis; E. coli J5 (rough)
Procedure, shortened: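 Log-phase bacteria, washed in 10 mM sodium phosphate pH 7.4, were seeded at 4×10^6 CFU/mL in underlayer agarose. BPI fragments (5 or 10 μL) went into 3 mm wells for 3 h at 37° C., then overlayer agarose was added. After overnight 37° C. incubation, clearing zones were measured by micrometer.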

[5] = system: E. coli 0111:B4 (smooth) bacteria; assay: Radial diffusion bactericidal assay, E. coli 0111:B4; format: cell-based; conditions: radial diffusion; PROBIT analysis; E. coli O111:B4 (smooth)
Staphylococcus aureus = assay: Radial diffusion bactericidal assay, Staphylococcus aureus; format: cell-based; conditions: radial diffusion; PROBIT analysis; S. aureus
E. coli O86a:K61 = assay: Radial diffusion bactericidal assay, E. coli O86a:K61; format: cell-based; conditions: FIG. 11i
E. coli 0113 LPS = assay: Limulus Amoebocyte Lysate (LAL) inhibition assay; format: biochemical; conditions: alanine variant relative to BPI.2
Procedure, shortened: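 BPI proteolytic fragments incubated with E. coli 0113 LPS (4 ng/mL final) for 3 h at 37 °C, then diluted in D-PBS to 200 pg/mL LPS for chromogenic LAL. Lysate 25 min, substrate 20–30 min at room temperature, acetic acid stop; OD405 expressed as percent LPS inhibition.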

In the case of thaumatin [reference compound], the “heparin neutralization effect (in words)” value (ATIII/heparin complexes) is reported as “no neutralizing effect”, the “cpm ^3H-Heparin bound” value ([1]; 100 picomoles of each fragment per well, saturating 3H-heparin 20 μg/mL, mean of duplicate wells ± range) is reported as 7,432 ± 83 cpm and the “APTT in heparinized rats (in words)” value [2] is reported as “no effect on APTT times in heparinized animals”.
In the case of KWKAQFRFLKKSKVGWLILLFHKK [BPI.102], the “activity in the murine endotoxemia model (in words)” value [3] is reported as “active in this murine model”, the “Heparin Capacity” value [1] is reported as 535.2 ng and the Kd [1] is reported as 4610 nM. The “pmol added to well to achieve a 30 mm^2 bactericidal zone, E. coli J5” value [4] was 13,814.12 pmol, the “pmol added to well to achieve a 30 mm^2 bactericidal zone, E. coli O111:B4” value [5] was 697,655.78 pmol and the “pmol added to well to achieve a 30 mm^2 bactericidal zone, S. aureus” value (Staphylococcus aureus) was “b (no detectable activity up to 5 μg/well)”.
For IKISGKWKAAKRFLK [BPI.23], the “Heparin Capacity” value [1] was 285.0 ng, the Kd [1] was 693 nM and the “bactericidal activity (in words)” value (E. coli O86a:K61) was “showed bactericidal activity”. The “pmol added to well to achieve a 30 mm^2 bactericidal zone, E. coli J5” value [4] was 1,330.40 pmol, the “LAL (relative difference)” value (E. coli 0113 LPS) was “= (no difference in the LAL assay)” and the “pmol added to well to achieve a 30 mm^2 bactericidal zone, E. coli O111:B4” value [5] was 14,445.00 pmol.
